Reference: publication PMC6222927, “Aminobenzosuberone Scaffold as a Modular Chemical Tool for the Inhibition of Therapeutically Relevant M1 Aminopeptidases” (Molecules : A Journal of Synthetic Chemistry and Natural …, 2018)
Where two headings read alike, the source gives them in different places. Marks after values point to notes of the source that are not given here.

Key:
P. falciparum rPfAM1 = molecular target: T1, P. falciparum rPfAM1 (Plasmodium falciparum, UniProt O96935); test: biochemical; assay type: biochemical
T1 construct: made in house; host or cells: Escherichia coli Rosetta 2 (DE3)
T1 sequence (O96935 1-1085): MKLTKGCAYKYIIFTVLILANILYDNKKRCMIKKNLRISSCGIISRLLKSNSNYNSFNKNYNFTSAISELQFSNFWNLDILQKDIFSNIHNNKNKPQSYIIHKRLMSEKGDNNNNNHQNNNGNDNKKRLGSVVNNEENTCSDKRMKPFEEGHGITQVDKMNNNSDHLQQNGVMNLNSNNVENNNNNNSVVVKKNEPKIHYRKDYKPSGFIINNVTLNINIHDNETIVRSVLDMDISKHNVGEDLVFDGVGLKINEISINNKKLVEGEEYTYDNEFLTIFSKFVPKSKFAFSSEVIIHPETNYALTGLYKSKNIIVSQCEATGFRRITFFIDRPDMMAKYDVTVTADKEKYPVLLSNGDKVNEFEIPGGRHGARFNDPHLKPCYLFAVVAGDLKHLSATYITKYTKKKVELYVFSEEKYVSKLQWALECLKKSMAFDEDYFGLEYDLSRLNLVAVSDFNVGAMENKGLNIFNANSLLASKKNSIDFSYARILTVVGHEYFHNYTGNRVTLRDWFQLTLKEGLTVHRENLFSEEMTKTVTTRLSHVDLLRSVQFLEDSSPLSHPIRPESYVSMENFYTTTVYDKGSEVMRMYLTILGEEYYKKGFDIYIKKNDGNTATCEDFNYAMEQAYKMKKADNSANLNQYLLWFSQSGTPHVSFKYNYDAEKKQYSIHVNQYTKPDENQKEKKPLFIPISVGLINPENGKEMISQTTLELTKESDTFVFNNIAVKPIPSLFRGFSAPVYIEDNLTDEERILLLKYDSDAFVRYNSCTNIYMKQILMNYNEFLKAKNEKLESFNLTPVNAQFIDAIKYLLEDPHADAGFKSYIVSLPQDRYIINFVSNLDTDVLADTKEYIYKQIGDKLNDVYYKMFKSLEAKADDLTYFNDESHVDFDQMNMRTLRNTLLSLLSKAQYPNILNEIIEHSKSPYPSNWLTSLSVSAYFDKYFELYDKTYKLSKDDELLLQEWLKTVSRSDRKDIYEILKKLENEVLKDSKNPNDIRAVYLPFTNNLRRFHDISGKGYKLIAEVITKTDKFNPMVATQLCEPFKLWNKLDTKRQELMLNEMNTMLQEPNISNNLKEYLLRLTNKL
Procedure: Initial velocities were measured with increasing concentrations of inhibitors and Ki values were determined by Dixon plots in triplicate.

E. coli rEcPepN = E. coli rEcPepN (Escherichia coli, UniProt P04825); test: rEcPepN inhibition, Leu-pNA substrate, Dixon method; assay type: biochemical
Sequence of E. coli rEcPepN (P04825 whole entry): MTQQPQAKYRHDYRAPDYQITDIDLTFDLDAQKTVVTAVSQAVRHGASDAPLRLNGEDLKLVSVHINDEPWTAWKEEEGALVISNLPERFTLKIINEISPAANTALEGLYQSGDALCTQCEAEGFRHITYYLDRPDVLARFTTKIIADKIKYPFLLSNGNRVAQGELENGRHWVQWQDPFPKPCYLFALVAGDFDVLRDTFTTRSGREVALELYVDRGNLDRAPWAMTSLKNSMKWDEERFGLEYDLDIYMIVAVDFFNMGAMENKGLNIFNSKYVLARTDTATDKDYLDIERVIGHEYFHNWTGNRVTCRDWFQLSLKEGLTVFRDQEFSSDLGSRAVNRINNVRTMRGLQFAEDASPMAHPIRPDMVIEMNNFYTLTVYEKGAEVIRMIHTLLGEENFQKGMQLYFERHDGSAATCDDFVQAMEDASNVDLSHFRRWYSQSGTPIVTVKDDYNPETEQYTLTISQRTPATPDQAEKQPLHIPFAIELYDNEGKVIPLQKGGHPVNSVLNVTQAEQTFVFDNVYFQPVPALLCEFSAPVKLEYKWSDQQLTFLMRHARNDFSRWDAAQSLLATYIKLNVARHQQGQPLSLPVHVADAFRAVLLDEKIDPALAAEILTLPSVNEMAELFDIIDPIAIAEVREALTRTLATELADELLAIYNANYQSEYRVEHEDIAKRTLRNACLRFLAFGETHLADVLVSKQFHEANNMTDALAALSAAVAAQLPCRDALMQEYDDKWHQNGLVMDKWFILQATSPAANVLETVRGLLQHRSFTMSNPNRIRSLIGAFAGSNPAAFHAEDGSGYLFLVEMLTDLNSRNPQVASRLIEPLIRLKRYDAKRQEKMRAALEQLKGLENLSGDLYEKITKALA
Procedure: Enzyme activity assays were carried out in 10 mM Tris-HCl buffer at pH 7.5 with 150 mM NaCl, enzyme, 100 µM substrate (Leu-pNA) in a 100 μL reaction at 37 °C. The absorbance was read at 405 nm. Concentrations ranging from 1 nM to 100 μM of inhibitors (dissolved in DMSO) were incubated with each of the enzymes ([…]) for 30 min at 37 °C in a 96 well plate. After addition of the substrate, immediate increase in absorption was measured. All inhibition assays were performed in triplicates and initial velocities were measured. Percentage inhibition and log values of inhibitor concentrations were plotted using SigmaPlot to determine IC50 values. Ki values were determined by the Dixon method. The assay consists of reaction buffer, enzyme and varied concentrations of Leu-pNA (25, 50, 100, 200 and 400 µM). […] Data were plotted as 1/rate versus inhibitor concentration for each substrate concentration and a linear fit was calculated by non-linear regression using SigmaPlot12.5. All the reactions were performed in triplicates, SD values were reported.

pAPN from porcine kidney = conditions: Dixon plots; cited from earlier work
[1] = molecular target: human leukotriene A4 hydrolase (rHsLTA4H); parameters: method as in PMID 21843945; conditions: cited from earlier work; for Ki: ref 58; for % of inhibition of rHsLTA4H: determined at 100 µM
[2] = molecular target: aminopeptidase from A. proteolytica (AAP); parameters: method as in PMID 21843945; conditions: ref 58; cited from earlier work
[3] = Octanol/water partition coefficient (logD7.4) by reversed-phase HPLC; conditions: pH 7.4
Procedure: The flow was 0.9 mL/min. The aminobenzosuberone derivatives were dissolved at 0.4 µM in methanol. The standards were also dissolved in methanol. Column void volume was estimated from the retention time of uracil, which was included as a non-retained internal reference with each injection.

[4] = molecular target: T2, human endoplasmic reticulum aminopeptidase 1 (rHsERAP1) (Homo sapiens, UniProt Q9NZ08); test: rHsERAP1 inhibition, L-AMC fluorigenic substrate; assay type: biochemical; conditions: 50 µM L-AMC
T2 construct: made in house; host or cells: Hi5 insect cells (baculovirus produced in sf9)
T2 sequence (Q9NZ08 whole entry): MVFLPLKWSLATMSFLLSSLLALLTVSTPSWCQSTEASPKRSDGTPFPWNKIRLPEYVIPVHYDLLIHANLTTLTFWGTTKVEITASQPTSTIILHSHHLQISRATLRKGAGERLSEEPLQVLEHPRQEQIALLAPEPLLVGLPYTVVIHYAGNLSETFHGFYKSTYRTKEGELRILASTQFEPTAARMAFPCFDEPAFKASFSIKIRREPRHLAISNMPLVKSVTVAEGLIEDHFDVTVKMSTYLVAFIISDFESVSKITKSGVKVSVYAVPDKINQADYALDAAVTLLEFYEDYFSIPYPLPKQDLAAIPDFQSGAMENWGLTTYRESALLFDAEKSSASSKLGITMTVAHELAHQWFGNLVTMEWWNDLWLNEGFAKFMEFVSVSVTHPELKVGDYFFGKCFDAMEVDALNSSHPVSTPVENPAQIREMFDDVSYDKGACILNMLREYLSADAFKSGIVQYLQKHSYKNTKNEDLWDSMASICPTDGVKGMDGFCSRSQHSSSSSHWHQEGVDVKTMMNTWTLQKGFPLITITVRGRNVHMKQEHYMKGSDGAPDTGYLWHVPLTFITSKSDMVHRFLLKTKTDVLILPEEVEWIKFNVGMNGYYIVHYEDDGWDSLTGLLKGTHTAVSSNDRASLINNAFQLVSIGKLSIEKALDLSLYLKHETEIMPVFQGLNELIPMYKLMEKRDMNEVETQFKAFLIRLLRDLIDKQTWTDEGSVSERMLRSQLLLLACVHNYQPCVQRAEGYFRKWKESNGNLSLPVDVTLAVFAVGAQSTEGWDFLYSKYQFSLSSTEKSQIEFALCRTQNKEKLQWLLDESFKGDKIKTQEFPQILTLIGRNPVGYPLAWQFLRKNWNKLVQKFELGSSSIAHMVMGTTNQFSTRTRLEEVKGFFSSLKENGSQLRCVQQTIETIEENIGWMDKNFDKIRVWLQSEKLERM
Procedure: (§1) The enzymatic activity of HsERAP1, HsERAP2 and HsIRAP was determined by following the time-dependent increase in fluorescence at 460 nm (excitation: 380 nm) of the fluorigenic substrates L-Leucine-7-amido-4-methyl coumarin (L-AMC; Sigma, Darmstatd, Germany) for HsERAP1 and HsIRAP and L-arginyl-7-amido-4-methyl coumarin (R-AMC; Sigma) for HsERAP2. […] The reaction was followed for 10 min at room temperature and the remaining enzymatic activity was calculated by measuring the slope of the time course.

[5] = molecular target: T3, human endoplasmic reticulum aminopeptidase 2 (rHsERAP2) (Homo sapiens, UniProt Q6P179); test: rHsERAP2 inhibition, R-AMC fluorigenic substrate; assay type: biochemical; conditions: 50 µM R-AMC
T3 construct: made in house; host or cells: Hi5 insect cells (baculovirus produced in sf9)
T3 sequence (Q6P179 whole entry): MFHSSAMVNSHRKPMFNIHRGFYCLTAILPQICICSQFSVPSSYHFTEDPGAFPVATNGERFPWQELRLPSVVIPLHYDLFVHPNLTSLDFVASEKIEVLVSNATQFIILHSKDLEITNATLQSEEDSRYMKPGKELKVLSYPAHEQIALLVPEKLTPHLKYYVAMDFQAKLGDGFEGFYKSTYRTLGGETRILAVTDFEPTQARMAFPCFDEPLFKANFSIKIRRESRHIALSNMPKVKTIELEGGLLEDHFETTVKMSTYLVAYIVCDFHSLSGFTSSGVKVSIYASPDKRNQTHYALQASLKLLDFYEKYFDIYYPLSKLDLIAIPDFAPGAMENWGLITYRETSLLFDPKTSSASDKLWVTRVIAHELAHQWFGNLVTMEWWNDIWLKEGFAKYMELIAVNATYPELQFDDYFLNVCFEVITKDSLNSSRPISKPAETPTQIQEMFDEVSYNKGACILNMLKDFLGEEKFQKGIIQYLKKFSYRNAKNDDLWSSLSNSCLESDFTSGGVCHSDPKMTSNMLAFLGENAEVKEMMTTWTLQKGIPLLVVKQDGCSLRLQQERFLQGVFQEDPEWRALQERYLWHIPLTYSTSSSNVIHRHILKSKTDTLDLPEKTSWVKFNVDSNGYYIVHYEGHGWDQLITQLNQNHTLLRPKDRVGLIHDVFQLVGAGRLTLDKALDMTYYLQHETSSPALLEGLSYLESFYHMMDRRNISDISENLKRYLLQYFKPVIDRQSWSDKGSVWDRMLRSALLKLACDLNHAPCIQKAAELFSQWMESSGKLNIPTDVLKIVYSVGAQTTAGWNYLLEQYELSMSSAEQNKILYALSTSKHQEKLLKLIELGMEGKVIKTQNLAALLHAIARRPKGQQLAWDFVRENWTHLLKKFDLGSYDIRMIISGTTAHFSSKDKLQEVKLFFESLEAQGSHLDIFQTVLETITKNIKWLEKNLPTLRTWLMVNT
Procedure: as §1

[6] = molecular target: human puromycine sensitive aminopeptidase (rHsPSA) (Homo sapiens, UniProt P55786); test: rHsPSA inhibition, Leu-pNA substrate, Dixon method; assay type: biochemical; conditions: triplicate, SD
Sequence of human puromycine sensitive aminopeptidase (rHsPSA) (P55786 whole entry): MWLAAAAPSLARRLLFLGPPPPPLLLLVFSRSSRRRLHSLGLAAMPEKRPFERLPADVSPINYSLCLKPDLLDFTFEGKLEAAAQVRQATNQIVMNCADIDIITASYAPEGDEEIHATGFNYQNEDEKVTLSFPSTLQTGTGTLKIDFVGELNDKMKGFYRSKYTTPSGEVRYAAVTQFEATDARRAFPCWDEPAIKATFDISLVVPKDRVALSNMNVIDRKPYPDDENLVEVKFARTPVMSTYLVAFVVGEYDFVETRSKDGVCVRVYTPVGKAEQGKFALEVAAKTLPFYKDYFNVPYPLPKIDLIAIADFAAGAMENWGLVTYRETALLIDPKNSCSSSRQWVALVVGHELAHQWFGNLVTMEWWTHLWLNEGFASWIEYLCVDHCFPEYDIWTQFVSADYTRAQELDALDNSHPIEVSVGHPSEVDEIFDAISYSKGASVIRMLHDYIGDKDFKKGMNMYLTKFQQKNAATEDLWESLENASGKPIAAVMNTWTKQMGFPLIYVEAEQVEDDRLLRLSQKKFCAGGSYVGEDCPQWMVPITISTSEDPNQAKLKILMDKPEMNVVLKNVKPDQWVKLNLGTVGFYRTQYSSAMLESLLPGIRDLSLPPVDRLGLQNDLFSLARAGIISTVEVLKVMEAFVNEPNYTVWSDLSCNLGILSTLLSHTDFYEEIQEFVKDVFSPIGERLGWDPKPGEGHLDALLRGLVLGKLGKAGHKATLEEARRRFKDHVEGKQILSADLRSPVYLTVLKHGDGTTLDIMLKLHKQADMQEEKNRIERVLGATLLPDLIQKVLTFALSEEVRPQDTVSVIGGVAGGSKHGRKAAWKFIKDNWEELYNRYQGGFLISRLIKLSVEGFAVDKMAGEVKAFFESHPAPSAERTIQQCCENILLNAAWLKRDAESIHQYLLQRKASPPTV
Procedure: Enzyme activity assays were carried out in 10 mM Tris-HCl buffer at pH 7.5 with 150 mM NaCl, enzyme, 100 µM substrate (Leu-pNA) in a 100 μL reaction at 37 °C. The absorbance was read at 405 nm. Concentrations ranging from 1 nM to 100 μM of inhibitors (dissolved in DMSO) were incubated with each of the enzymes ([…]) for 30 min at 37 °C in a 96 well plate. After addition of the substrate, immediate increase in absorption was measured. All inhibition assays were performed in triplicates and initial velocities were measured. Percentage inhibition and log values of inhibitor concentrations were plotted using SigmaPlot to determine IC50 values. Ki values were determined by the Dixon method. The assay consists of reaction buffer, enzyme and varied concentrations of Leu-pNA (25, 50, 100, 200 and 400 µM). […]. All the reactions were performed in triplicates, SD values were reported.

[7] = molecular target: T4, human Leucyl-cystinyl aminopeptidase (rHsIRAP) (Homo sapiens, UniProt Q9UIQ6); test: rHsIRAP inhibition, L-AMC fluorigenic substrate; assay type: biochemical
T4 construct: made in house; host or cells: Hi5 insect cells (baculovirus produced in sf9)
T4 sequence (Q9UIQ6 155-1025 limits assumed): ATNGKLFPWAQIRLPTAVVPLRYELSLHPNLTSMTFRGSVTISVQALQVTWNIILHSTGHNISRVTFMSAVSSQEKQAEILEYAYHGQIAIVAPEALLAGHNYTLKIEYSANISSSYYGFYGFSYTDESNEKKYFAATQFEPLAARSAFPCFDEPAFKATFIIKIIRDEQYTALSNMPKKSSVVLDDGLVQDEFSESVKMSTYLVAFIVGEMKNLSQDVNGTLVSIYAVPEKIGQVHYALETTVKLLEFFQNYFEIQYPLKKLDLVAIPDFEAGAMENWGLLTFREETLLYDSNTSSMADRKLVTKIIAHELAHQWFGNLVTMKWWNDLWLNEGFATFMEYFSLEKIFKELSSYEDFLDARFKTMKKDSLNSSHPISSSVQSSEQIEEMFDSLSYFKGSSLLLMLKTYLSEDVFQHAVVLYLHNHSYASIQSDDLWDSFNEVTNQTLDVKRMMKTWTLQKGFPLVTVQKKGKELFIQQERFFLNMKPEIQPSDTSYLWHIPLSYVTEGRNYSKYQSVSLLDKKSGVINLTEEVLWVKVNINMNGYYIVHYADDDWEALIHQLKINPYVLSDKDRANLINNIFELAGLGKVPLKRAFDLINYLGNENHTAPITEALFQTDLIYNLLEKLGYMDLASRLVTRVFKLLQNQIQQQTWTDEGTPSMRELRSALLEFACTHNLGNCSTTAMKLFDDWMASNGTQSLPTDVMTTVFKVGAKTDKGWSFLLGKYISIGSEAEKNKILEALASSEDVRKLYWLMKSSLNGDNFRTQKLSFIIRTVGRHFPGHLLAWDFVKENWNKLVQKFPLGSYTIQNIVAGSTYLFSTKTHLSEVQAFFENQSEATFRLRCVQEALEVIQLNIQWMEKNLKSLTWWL
Procedure: The enzymatic activity of HsERAP1, HsERAP2 and HsIRAP was determined by following the time-dependent increase in fluorescence at 460 nm (excitation: 380 nm) of the fluorigenic substrates L-Leucine-7-amido-4-methyl coumarin (L-AMC; Sigma, Darmstatd, Germany) for HsERAP1 and HsIRAP and L-arginyl-7-amido-4-methyl coumarin (R-AMC; Sigma) for HsERAP2. […]. The reaction was followed for 10 min at room temperature and the remaining enzymatic activity was calculated by measuring the slope of the time course. […]

P. falciparum rPfAM17 = molecular target: T5, P. falciparum rPfAM17 (Plasmodium falciparum, UniProt Q8IL11); test: rPfAM17 inhibition, Leu-pNA substrate, Dixon plots; assay type: biochemical
T5 construct: made in house; host or cells: Escherichia coli Rosetta 2 (DE3)
T5 sequence (Q8IL11 1-605): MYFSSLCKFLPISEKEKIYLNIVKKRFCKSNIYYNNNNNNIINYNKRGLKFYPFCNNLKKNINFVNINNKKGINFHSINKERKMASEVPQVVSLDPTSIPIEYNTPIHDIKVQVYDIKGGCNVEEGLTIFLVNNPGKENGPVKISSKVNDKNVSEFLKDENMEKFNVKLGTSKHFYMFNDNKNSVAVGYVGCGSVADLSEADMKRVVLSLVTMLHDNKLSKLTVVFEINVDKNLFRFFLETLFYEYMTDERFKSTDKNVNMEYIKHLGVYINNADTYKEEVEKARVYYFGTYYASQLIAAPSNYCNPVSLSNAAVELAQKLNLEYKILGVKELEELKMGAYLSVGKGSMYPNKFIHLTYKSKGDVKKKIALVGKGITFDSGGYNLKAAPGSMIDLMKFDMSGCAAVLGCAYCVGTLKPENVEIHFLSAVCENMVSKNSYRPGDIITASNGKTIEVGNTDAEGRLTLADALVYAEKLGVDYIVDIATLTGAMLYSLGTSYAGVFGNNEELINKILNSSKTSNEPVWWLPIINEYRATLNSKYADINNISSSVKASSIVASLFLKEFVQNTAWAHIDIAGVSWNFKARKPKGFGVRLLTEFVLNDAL
Procedure: Tests were carried out on HP/Agilent UV-Visible diode array spectrophotometer 8453 (HP/Agilent, Santa Clara, CA, USA), at 30 °C in Tris HCl 50 mM pH 7.4 for rPfAM1 and pH 8 for rPfAM17, with a final DMSO concentration of 1%. […]. […] Initial velocities were measured with increasing concentrations of inhibitors and Ki values were determined by Dixon plots in triplicate.

[8] = molecular target: mammalian aminopeptidase N (mAPN); conditions: cited from earlier work
[9] = molecular target: P. falciparum (PfAM1) M1 aminopeptidase; conditions: cited from earlier work
[10] = molecular target: P. falciparum M17 aminopeptidase (PfAM17); conditions: ref 45; cited from earlier work
[11] = molecular target: human puromycine sensitive aminopeptidase (HsPSA); conditions: cited from earlier work
[12] = tested on: E. coli (EcPepN) M1 aminopeptidase; conditions: ref 49; cited from earlier work
[13] = molecular target: human aminopeptidase A (HsAPA); conditions: ref 50; cited from earlier work
[14] = Dixon plots, triplicate, read-out: Ki rPfAM1
[15] = 50 µM L-AMC, read-out: IC50 rHsIRAP

SMILES: NC1CCc2ccccc2CC1=O (centres unmarked) [21a]
- Ki (P. falciparum rPfAM1; [14]): 15 ± 0.07 µM
- Ki (E. coli rEcPepN): 50 ± 3 µM
- Ki (pAPN from porcine kidney): 1000 nM
- Ki [1]: > 100 µM
- Ki [2]: > 100 µM
- chromatographic logD [3]: 0.54

SMILES: NC1CCc2cccc(Br)c2CC1=O (centres unmarked) [21b]
- Ki (E. coli rEcPepN): 1.07 ± 0.11 µM
- IC50 [4]: 120 ± 11 µM
- IC50 [5]: 49 ± 3.8 µM
- Ki [6]: 1.63 ± 0.08 µM
- IC50 [7, 15]: 1 ± 0.08 µM
- Ki (P. falciparum rPfAM17): > 100 µM
- Ki (pAPN from porcine kidney): 40 nM
- Ki [1]: > 100 µM
- Ki [2]: > 100 µM
- chromatographic logD [3]: 1.28

SMILES: NC1CCc2c(cccc2-c2ccccc2)CC1=O (centres unmarked) [21f]
- Ki (P. falciparum rPfAM1): 2 ± 0.07 µM
- IC50 [4]: 137 ± 5 µM
- IC50 [5]: > 200 µM
- IC50 [7, 15]: 2.2 ± 0.13 µM
- Ki (P. falciparum rPfAM17): > 100 µM
- Ki (pAPN from porcine kidney): 250 nM
- Ki [1]: > 100 µM
- Ki [2]: > 100 µM
- chromatographic logD [3]: 2.22

SMILES: NC1CCc2c(ccc3ccccc23)CC1=O (centres unmarked) [21g]
- Ki (P. falciparum rPfAM1; [14]): 15 ± 1 µM
- Ki (pAPN from porcine kidney): 40 nM
- Ki [1]: > 100 µM
- Ki [2]: > 100 µM
- chromatographic logD [3]: 1.67

SMILES: NC1CCc2c(Br)ccc(Br)c2CC1=O (centres unmarked) [21h]
- Ki (P. falciparum rPfAM1; [14]): 0.005 ± 0.001 µM
- IC50 [7]: 0.034 ± 0.001 µM
- Ki ([7]; read-out: Ki HsIRAP): 0.034 µM
- chromatographic logD [3]: 2.48

SMILES: NC1CCc2c(Br)ccc(-c3ccccc3)c2CC1=O (centres unmarked) [21i]
- Ki (P. falciparum rPfAM1): 0.03 ± 0.005 µM
- Ki (E. coli rEcPepN; Dixon method, triplicate, SD, read-out: Ki rEcPepN): 0.05 ± 0.003 µM
- times more potent than 21c on EcPepN (E. coli rEcPepN; ratio of Ki values, 21i versus 21c): 3
- IC50 [4]: 1.6 ± 0.1 µM
- IC50 [5]: 0.39 ± 0.013 µM
- Ki [6]: 0.021 ± 0.003 µM
- IC50 [7]: 0.12 ± 0.015 µM
- Ki (pAPN from porcine kidney): 0.06 nM
- % of inhibition of rHsLTA4H [1]: 68% ^#
- Ki [2]: 39 µM
- chromatographic logD [3]: 3.12

SMILES: NC1CCc2c(-c3ccccc3)ccc(Br)c2CC1=O (centres unmarked) [21j]
- Ki (P. falciparum rPfAM1; [14]): 4 ± 0.7 µM
- Ki (pAPN from porcine kidney): 70 nM
- % of inhibition of rHsLTA4H [1]: 54% ^#
- Ki [2]: > 100 µM
- chromatographic logD [3]: 3.06

SMILES: NC(CCc1ccccc1)P(=O)(O)CC(Cc1ccccc1)C(=O)O (centres unmarked) [compound 2]
- Ki ([8]; ref 46): 0.002 µM
- Ki ([9]; ref 47): 0.079 µM
- Ki [10]: 0.013 µM

SMILES: CCOC(=O)C1=C(Nc2ccccc2)CC(c2ccccn2)N(c2ccccc2)C1c1cccnc1 (centres unmarked) [compound 4]
- Ki ([8]; ref 49): > 100 µM
- IC50 ([11]; ref 49): 1.79 µM
- Ki [12]: > 100 µM
- Ki ([9]; ref 49): > 100 µM

SMILES: N[C@H](CS)CCC(=O)O [compound 6]
- Ki [13]: 0.14 µM

SMILES: O=C(CCc1ccc(F)cc1)/C(=C/c1ccccc1)C(=O)NO [compound 10]
- IC50 ([8]; ref 35, 53): 1.37 µM
- IC50 ([9]; ref 35, 53): 0.006 µM

SMILES: CCc1cccc(CC)c1N1C(=O)c2cccc3cccc(c23)C1=O [compound 12]
- Ki ([8]; ref 55): > 100 µM
- IC50 ([11]; ref 55): 0.8 µM
